Measured values taken from publication PMC11299051 (Molecular informatics, 2023).

Experiments:
SARS-CoV-2 = conditions: in vivo; cited from earlier work
RdRp (Nsp12 domain) = RdRp (Nsp12 domain) (Severe acute respiratory syndrome coronavirus 2, UniProt P0DTD1); experiment: biochemical; type: binding, SARS-CoV-2

Cn1cnc(Cn2c(=O)[nH]/c(=N\c3cc4cn(C)nc4cc3Cl)n(Cc3cc(F)c(F)cc3F)c2=O)n1 [Ensitrelivir]
decrease viral clearance (SARS-CoV-2): 50 h

N#C[C@@]1(c2ccc3c(N)ncnn23)O[C@H](COP(=O)(O)OP(=O)(O)OP(=O)(O)O)[C@@H](O)[C@H]1O [GS-443902]
binding to Nsp12 (in words) (RdRp (Nsp12 domain)): could not detect binding

Cc1ccc(C(=O)Nc2ccc(S(=O)(=O)O)c3cc(S(=O)(=O)O)cc(S(=O)(=O)O)c23)cc1NC(=O)c1cccc(NC(=O)Nc2cccc(C(=O)Nc3cc(C(=O)Nc4ccc(S(=O)(=O)O)c5cc(S(=O)(=O)O)cc(S(=O)(=O)O)c45)ccc3C)c2)c1 [Suramin]
Kd (RdRp (Nsp12 domain)): 827 ± 306 nM

Cc1ccc(NC(=O)c2ccc(nc2O)C2CC2)c(O)c1
binding to Nsp12 (in words) (RdRp (Nsp12 domain)): led to Nsp12 aggregation, so no KD could be determined

FC(F)(F)c1ccc2nnc(CNC(=O)c3ccc4 C(=O)N5CCC-CCC5=Nc4c3)n2c1
binding to Nsp12 (in words) (RdRp (Nsp12 domain)): led to Nsp12 aggregation, so no KD could be determined

Nc1nnnn1-c1cccc(c1)C(=O)NCc1cc(F)ccc1Oc1ccc(F)c-c(Cl)c1
binding to Nsp12 (in words) (RdRp (Nsp12 domain)): led to Nsp12 aggregation, so no KD could be determined
